From DBAASP
In brackets after ≈: the same amount, converted by molar mass.

Key:
Experiment in all cases: ≥ marks a high value that may be exact or a test limit, other limits are often not marked, values filed in µg/mL are converted to µM
[1] = system: Candida albicans NCYC 1467
[2] = system: Enterococcus faecalis NCTC 12697
[3] = system: Escherichia coli NCTC 10418
[4] = system: Klebsiella pneumoniae ATCC 43816
[5] = system: Pseudomonas aeruginosa ATCC 27853
[6] = system: Staphylococcus aureus ATCC 12493
[7] = system: Staphylococcus aureus NCTC 10788
[8] = system: Staphylococcus aureus
[9] = system: Bacillus subtilis ATCC 9372
[10] = system: Escherichia coli ATCC 8739
[11] = system: Proteus vulgaris NCTC 4635
[12] = system: Pseudomonas aeruginosa ATCC 9027
[13] = system: Staphylococcus aureus ATCC 6538

Row | Compound | MIC [1] [µM] | MIC [2] [µM] | MIC [3] [µM] | MIC [4] [µM] | MIC [5] [µM] | MIC [6] [µM] | MIC [7] [µM] | MIC [8] [µM] | MIC [9] [µM] | MIC [10] [µM] | MIC [11] [µM] | MIC [12] [µM] | MIC [13] [µM]
1 | CC[C@H](C)[C@H](NC(=O)[C@H](CO)NC(=O)[C@H](CCCCN)NC(=O)[C@H](Cc1c[nH]c2ccccc12)NC(=O)[C@H](CC(C)C)NC(=O)[C@H](C)N)C(=O)N[C@@H](CC(C)C)C(=O)N[C@@H](CCCCN)C(=O)N[C@@H](CC(N)=O)C(=O)N[C@H](C(=O)NCC(=O)N[C@@H](CCCCN)C(=O)N[C@@H](C)C(=O)N[C@@H](C)C(=O)NCC(=O)N[C@@H](CCCCN)C(=O)N[C@@H](C)C(=O)N[C@H](C(=O)N[C@@H](CC(C)C)C(N)=O)C(C)C)C(C)C [ALWKSILKNVGKAAGKAVL] | 2 (≈ 3.93 µg/mL) | ≥ 256 | 2 (≈ 3.93 µg/mL) | ≥ 32 | 4 (≈ 7.87 µg/mL) | 8 (≈ 15.7 µg/mL) | 2 (≈ 3.93 µg/mL) | 11.3 (≈ 22.2 µg/mL) | – | – | – | – | –
2 | CC[C@H](C)[C@H](NC(=O)[C@@H](NC(=O)[C@H](CO)NC(=O)[C@H](C)NC(=O)[C@@H](NC(=O)[C@H](CCCCN)NC(=O)[C@H](CCCCN)NC(=O)[C@@H](NC(=O)[C@@H](NC(=O)[C@H](C)NC(=O)[C@H](Cc1ccccc1)NC(=O)[C@H](CC(C)C)NC(=O)CN)C(C)C)[C@@H](C)CC)C(C)C)C(C)C)C(=O)NCC(=O)NCC(=O)O [GLFAVIKKVASVIGG] | – | – | – | – | – | – | – | – | ≥ 351 | ≥ 351 | ≥ 351 | 351 (≈ 512 µg/mL) | > 351
3 | CC[C@H](C)[C@H](NC(=O)[C@@H](NC(=O)[C@H](CC(=O)O)NC(=O)[C@H](Cc1ccccc1)NC(=O)[C@H](CC(C)C)NC(=O)CN)C(C)C)C(=O)N[C@@H](CCCCN)C(=O)N[C@@H](CCCCN)C(=O)N[C@H](C(=O)N[C@@H](C)C(=O)N[C@@H](CO)C(=O)O)C(C)C [GLFDVIKKVAS] | – | – | – | – | – | – | – | – | ≥ 435 | ≥ 870 | ≥ 870 | 870 (≈ 1020 µg/mL) | > 870
